BindingDB's records for doi:10.1021/jm00008a007 (1995)

Molecular target: Histamine H1 receptor (Cavia porcellus, UniProt P31389)
Assay: H1-Histamine receptor agonism on Guinea pig aorta was evaluated (SEM 0.03-0.18)

Histamine H1 receptor, sequence (P31389 whole entry): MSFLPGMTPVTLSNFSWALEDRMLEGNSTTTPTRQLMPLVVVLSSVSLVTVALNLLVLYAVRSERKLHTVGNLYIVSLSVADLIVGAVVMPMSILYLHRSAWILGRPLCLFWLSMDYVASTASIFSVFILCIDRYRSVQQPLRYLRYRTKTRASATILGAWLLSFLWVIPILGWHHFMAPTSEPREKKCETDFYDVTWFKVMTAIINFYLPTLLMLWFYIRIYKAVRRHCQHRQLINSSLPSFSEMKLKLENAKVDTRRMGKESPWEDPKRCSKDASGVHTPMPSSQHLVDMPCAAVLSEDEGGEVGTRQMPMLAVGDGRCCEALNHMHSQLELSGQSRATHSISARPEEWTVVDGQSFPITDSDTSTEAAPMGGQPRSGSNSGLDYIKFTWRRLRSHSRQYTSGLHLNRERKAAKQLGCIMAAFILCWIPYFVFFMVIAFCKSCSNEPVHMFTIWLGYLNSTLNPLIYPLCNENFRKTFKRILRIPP

SMILES | EC50 [µM]
NCCc1c[nH]c(Cc2ccsc2)n1 | 128
NCCc1c[nH]c(Cc2cccs2)n1 | 147
NCCc1c[nH]c(Cc2ccccc2Cl)n1 | 575
NCCc1c[nH]c(-c2cccs2)n1 | 9.99
NCCc1c[nH]c(-c2csc(Br)c2)n1 | 11.4
NCCc1c[nH]c(-c2ccc[nH]2)n1 | 10.2
NCCc1nccs1 [2-(2-aminoethyl)thiazole] | 6.76
NCCc1c[nH]c(Cc2cccc(Cl)c2)n1 | 288

Compounds with a lower EC50, results first:

EC50 [µM] | SMILES
6.3 | NCCc1c[nH]c(-c2ccccc2)n1
6.16 | NCCc1c[nH]c(-c2ccsc2)n1
5.37 | NCCc1c[nH]c(-c2ccco2)n1
2.57 | NCCc1c[nH]c(-c2cccc(I)c2)n1
1.28 | NCCc1cnc(-c2cccc(C(F)(F)F)c2)[nH]1
